In PMC12454639, “Direct disassembly of α-syn preformed fibrils into α-syn monomers by an all-D-peptide” (NPJ Parkinson's Disease, 2025):
Square brackets hold non-standard residues; d marks the D form. Peptide text beside a SMILES is read from it.

Experiments:
[1] = tested on: α-synA53T–YFP (HEK293T cells); assay: Seeded intracellular aggregation in α-synA53T–YFP cells; format: cell-based, human; details: day 3; for aggregate-positive cells: transfected, then 30 nM small α-syn PFF seeds
Source text: Fig. 5 SVD-1a inhibits seeded α-syn aggregation in cells. To validate the inhibitory effect of SVD-1a in cells, we used the α-synA53T–YFP cell system, which stably expresses human α-syn with the familial A53T mutation fused to YFP in HEK293T cells and enables fluorescence-based detection of aggregates that show up as highly fluorescent spots within the cells, clearly above background, intracellularly after seeding with small α-syn PFF seeds. In order to avoid interference of the peptide with the uptake of small α-syn PFF seeds, we performed a two-step transfection starting with a first transfection of the peptide and a second transfection with PFFs. […] To quantify the number of cells with aggregates in our images and to avoid experimental bias, we used a fully automated algorithm for image analysis. […] One asterisk denotes p values < 0.05 and three asterisks a p value < 0.001. Error bars indicate standard deviation. […] Treatment with increasing concentrations of SVD-1a, here imaged at 25 µM, led to a concentration-dependent reduction in the number of cells with aggregates (H-J). Panels B, E, and H show nuclei stained with Hoechst 33342. Panels C, F, and I show αSynA53T–YFP fluorescence. Panels D, G, and J show merged images. The scale bar in J represents 100 µm and applies to all panels. The viability of the cells was not reduced by transfection with seeds or in SVD-1a, as shown in Supplementary Fig. 15. Confirmation that highly fluorescent aggregates contain α-syn is shown in Supplementary Fig. 14 by co-immunostaining with syn-211 antibody, anti-α-syn (phospho S129) antibody and 5G4 antibody.
A construct encoding full-length A53T-mutated human α-syn fused with YFP at the C-terminus was synthesized and introduced into the pMK–RQ expression vector (GeneArt; Thermo Fisher Scientific, USA). The α-synA53T–YFP construct was subcloned into the pIRESpuro3 vector (Clontech; Takara Bio, JPN) using NheI (5′) and NotI (3′) restriction sites. HEK293T cells (American Type Culture Collection) were cultured in high-glucose Dulbecco’s modified Eagle’s medium (DMEM; Sigma-Aldrich, USA) supplemented with 10% fetal calf serum (Sigma-Aldrich, USA), and 50 units/ml penicillin as well as 50 μg/ml streptomycin (Sigma-Aldrich, USA). Cells were cultured in a humidified atmosphere of 5% CO2 at 37 °C. Cells plated in DMEM were transfected using Lipofectamine 2000 (Invitrogen; Thermo Fisher Scientific, USA). Stable cells were selected in DMEM containing 1 μg/ml puromycin (EMD Millipore, USA). Monoclonal lines were generated by fluorescence-activated cell sorting of a polyclonal cell population in 96-well plates using a MoFlo XDP cell sorter (Beckman Coulter, USA). Finally, the clonal cell line B5 was selected from among 24 clonal cell lines and is referred to as αSynA53T–YFP cells. Peptides were incubated with 1.5% Lipofectamine 2000 in OptiMEM for 2 h at room temperature. […] On day 3 the cells were imaged with an IN Cell Analyzer 6500HS System (Cytiva, USA) using the blue and green fluorescence channel, and analyzed using IN Carta Image Analysis Software (Cytiva, USA) after an algorithm was established to identify intracellular aggregates in living cells. For each condition, we used four wells and took 16 images per well, which were analyzed by a fully automated algorithm to avoid bias. […]

[2] = CD spectroscopy of SVD-1a alone; format: physicochemical; details: 30 µM, PBS pH 7.4, 37 °C
Method: Far-UV circular dichroism (CD) data were collected using a Jasco J-1100 spectropolarimeter (Jasco, GE). 350 µl samples were pooled and loaded into a high precision quartz cuvette with a path length of 1 mm (Hellma group, GE). A scan speed of 20 nm/min with five accumulations per sample was performed using far UV wavelengths from 260 to 190 nm. Baseline was corrected by subtracting measurements of the reference sample only.
Supplementary Fig. 13: Analysis of the seeded aggregation assay in the presence and absence of SVD-1a using circular dichroism (CD) spectroscopy. Small α-syn PFF (500 nM) were incubated in PBS (pH 7.4) at 37 °C under quiescent conditions for 24 hours, either alone or in the presence of 15 µM α-synuclein monomer and/or 30 µM SVD-1a. For each condition and time point, three replicates (each 120 µl) were pooled and analyzed by CD spectroscopy at 0, 2, 8, and 24 hours. Far-UV ellipticity was measured in a quartz cuvette (path length = 10 mm) using a J-1100 CD spectrometer (Jasco, GE). […] (D) Co-incubation of 500 nM α-synuclein PFFs with 15 µM α-synuclein monomer induced a structural transition towards β-sheet formation, as reflected in the CD spectrum (referenced to spectrum in (A)).

CC[C@@H](C)[C@@H](NC(=O)[C@@H](Cc1c[nH]cn1)NC(=O)[C@@H](CCC(=O)O)NC(=O)[C@@H](CCC(N)=O)NC(=O)[C@@H](Cc1c[nH]c2ccccc12)NC(=O)[C@@H](Cc1ccc(O)cc1)NC(=O)[C@H](NC(=O)[C@@H](CCC(=O)O)NC(=O)[C@@H](Cc1c[nH]cn1)NC(=O)[C@H](NC(=O)[C@H]1CCCN1C(=O)[C@@H](CC(C)C)NC(=O)[C@H](N)CCCNC(=N)N)[C@H](C)O)[C@H](C)O)C(=O)N[C@H](Cc1c[nH]c2ccccc12)C(=O)N[C@H](Cc1c[nH]cn1)C(=O)N[C@H](C)C(=O)N[C@H](CCCNC(=N)N)C(=O)N[C@H](CCCNC(=N)N)C(=O)N[C@H](CCCNC(=N)N)C(=O)N[C@H](CCCNC(=N)N)C(=O)N[C@H](CCCNC(=N)N)C(N)=O [SVD-1a] (H-[dR][dL][dP][dT][dH][dE][dT][dY][dW][dQ][dE][dH][dI][dW][dH][dA][dR][dR][dR][dR][dR]-NH2)
aggregate-positive cells ([1]; 5 µM peptide): 64% | aggregate-positive cells ([1]; 25 µM peptide): 57% | inhibition of intracellular seeded α-syn aggregation ([1]; peptide transfection, then 30 nM PFF seeds): inhibited α-syn aggregation in αSynA53T–YFP cells in a dose-dependent manner | secondary structure of peptide alone (CD) [2]: random coil secondary structure
